Test results: US20220031800A1, “PEPTIDES FOR TREATING NON-EXUDATIVE MACULAR DEGENERATION AND OTHER DISORDERS OF THE EYE” (Allegro Pharmaceuticals, LLC, priority 2019, published 2022)
Square brackets hold non-standard residues; d marks the D form. Peptide text beside a SMILES is read from it. Cya = N[C@@H](CS(=O)(=O)O)C(=O)O

Tests used:
primary human RPE cells = assay: WST-1 cell viability of primary human RPE cells exposed to hydroquinone; assay type: cell-based; settings: 0.4 mM risuteganib co-treatment with HQ 125-180 uM
Protocol: Purpose: To determine if risuteganib protects against hydroquinone (HQ)-mediated cell injury, elevated ROS level and reduced mitochondrial membrane potential (Δψm) in cultured human RPE cells. Elevated ROS levels increase oxidative stress in the cells, leading to reduced cell health and cell death. Loss of ΔΨm is a marker for early cell death. Methods: Primary human RPE cells were seeded on collagen-coated 96-well plates in triplicates at 8K, 10K and […] cells/well, respectively. Cells reached 80% to 100% confluence 24 hours after plating, and confluent cells were then grown for an additional 4 or 5 days until growth was density arrested. On day 6 after plating, cells in the plate upper half were loaded with 20 μM CM-H2DCFDA (measures ROS level) and in the plate lower half with 10 μM JC-1 (measures Δψm) for 30 minutes at 37° C. […] For the ROS and Δψm assays, a fluorescence plate reader was used to quantify ROS production (490-nm excitation, 522-nm emission), and green monomer of JC-1 (490-nm excitation, 522-nm emission) and red JC-1 aggregate (535-nm excitation, 590-nm emission), respectively. […] The WST reagent was quantified with a plate reader at 440 nm and a reference wavelength at 690 nm. Data were normalized to untreated control as 100% and were expressed as the mean±SD.

[1] = tested on: study eye of subjects with intermediate non-exudative AMD; assay: Best corrected visual acuity (BCVA, letters read) in Dry AMD study; assay type: in vivo, human; settings: for Proportion of subjects with gain of at least 8 BCVA letters read: post hoc
Protocol: The subjects in Groups 1 and 2 received the following treatments: Thus, subjects in Group 1 received an initial sham injection in the study eye followed by a single 1 mg dose of risuteganib in the study eye. The subjects in Group 2 received a total of two (2) doses of risuteganib (1 mg per dose) in the study eye. Numerous study assessments were conducted at various time points throughout the study. Included among these study assessments were; refractive eye examinations, determinations of BCVA AND low-luminance BCVA, Lanthony D-15 color vision test, measurement of intraocular pressure (IOP), Indirect ophthalmoscopy/dilated fundus examinations and spectral-domain optical coherence tomography (SD-OCT). Also, blood and saliva samples were obtained from each subject for genetic analysis. The above-listed study assessments were performed at the time points indicated in Table 1, below: For this study, a primary efficacy endpoint was deemed to be the percentage of population with an improvement in BCVA of at least 8 letters (1.5 lines) BCVA.

[2] = Week 4, Group 2 (1 mg IVT day 1 + wk 16), subset gain ≥8 letters at any week, n = 14
[3] = Week 4, Group 2 (1 mg IVT day 1 + wk 16), subset gain ≥8 letters at primary endpoint week, n = 12
[4] = Week 8, Group 2 (1 mg IVT day 1 + wk 16), subset gain ≥8 letters at any week, n = 14
[5] = Week 8, Group 2 (1 mg IVT day 1 + wk 16), subset gain ≥8 letters at primary endpoint week, n = 12
[6] = Week 12, Group 2 (1 mg IVT day 1 + wk 16), subset gain ≥8 letters at any week, n = 14
[7] = Week 12, Group 2 (1 mg IVT day 1 + wk 16), subset gain ≥8 letters at primary endpoint week, n = 12
[8] = Week 16, Group 2 (1 mg IVT day 1 + wk 16), subset gain ≥8 letters at any week, n = 14
[9] = Week 16, Group 2 (1 mg IVT day 1 + wk 16), subset gain ≥8 letters at primary endpoint week, n = 12
[10] = Week 20, Group 1 crossover (sham day 1, 1 mg IVT wk 16), subset gain ≥8 letters at any week, n = 3
[11] = Week 20, Group 1 crossover (sham day 1, 1 mg IVT wk 16), subset gain ≥8 letters at primary endpoint week, n = 2
[12] = Week 20, Group 2 (1 mg IVT day 1 + wk 16), subset gain ≥8 letters at any week, n = 14
[13] = Week 20, Group 2 (1 mg IVT day 1 + wk 16), subset gain ≥8 letters at primary endpoint week, n = 12
[14] = Week 24, Group 1 crossover (sham day 1, 1 mg IVT wk 16), subset gain ≥8 letters at any week, n = 3
[15] = Week 24, Group 1 crossover (sham day 1, 1 mg IVT wk 16), subset gain ≥8 letters at primary endpoint week, n = 2
[16] = Week 24, Group 2 (1 mg IVT day 1 + wk 16), subset gain ≥8 letters at any week, n = 14
[17] = Week 24, Group 2 (1 mg IVT day 1 + wk 16), subset gain ≥8 letters at primary endpoint week, n = 12
[18] = Week 28, Group 1 crossover (sham day 1, 1 mg IVT wk 16), subset gain ≥8 letters at any week, n = 3
[19] = Week 28, Group 1 crossover (sham day 1, 1 mg IVT wk 16), subset gain ≥8 letters at primary endpoint week, n = 2
[20] = Week 28, Group 2 (1 mg IVT day 1 + wk 16), n = 25
[21] = Week 28, Group 2 (1 mg IVT day 1 + wk 16), subset gain ≥8 letters at any week, n = 14
[22] = Week 28, Group 2 (1 mg IVT day 1 + wk 16), subset gain ≥8 letters at primary endpoint week, n = 12
[23] = Week 28 vs baseline, Group 2 (1 mg IVT day 1 + wk 16), n = 25
[24] = Week 32, Group 1 crossover (sham day 1, 1 mg IVT wk 16), subset gain ≥8 letters at any week, n = 3
[25] = Week 32, Group 1 crossover (sham day 1, 1 mg IVT wk 16), subset gain ≥8 letters at primary endpoint week, n = 2
[26] = Week 32, Group 2 (1 mg IVT day 1 + wk 16), subset gain ≥8 letters at any week, n = 14
[27] = Week 32, Group 2 (1 mg IVT day 1 + wk 16), subset gain ≥8 letters at primary endpoint week, n = 12
[28] = risuteganib eyes with geographic atrophy in foveal center at baseline (n = 2)
[29] = risuteganib eyes with no geographic atrophy in foveal center at baseline (n = 23)

SMILES: C[C@@H](O)[C@H](NC(=O)[C@H](CS(=O)(=O)O)NC(=O)CNC(=O)[C@H](CCCNC(=N)N)NC(=O)CN)C(=O)N1CCC[C@H]1C(=O)O [risuteganib, Glycyl-L-arginylglycyl-3-sulfo-L-alanyl-L-threonyl-L-proline] (H-GRG[Cya]TP-OH)
- Improvement of HQ-reduced cell viability (primary human RPE cells): 16%
- Time of peak effect after treatment ([1]; BCVA, after each 1 mg intravitreal dose): 12 weeks
- Proportion of subjects with gain of at least 8 BCVA letters read ([1]; Group 2, GA Subgroup (GA in central 6-mm subfield)): 40%
- Proportion of subjects with gain of at least 8 BCVA letters read ([1]; Group 2, No GA Subgroup (no GA in central 6-mm subfield)): 80%
- BCVA change in letters read, mean [1, 2]: 4.0 letters read
- BCVA change in letters read, median [1, 2]: 3.0 letters read
- BCVA letters read, mean [1, 2]: 66.5 letters read
- BCVA letters read, median [1, 2]: 67.0 letters read
- BCVA change in letters read, mean [1, 3]: 4.1 letters read
- BCVA change in letters read, median [1, 3]: 3.0 letters read
- BCVA letters read, mean [1, 3]: 67.0 letters read
- BCVA letters read, median [1, 3]: 68.5 letters read
- BCVA change in letters read, mean [1, 4]: 5.8 letters read
- BCVA change in letters read, median [1, 4]: 5.5 letters read
- BCVA letters read, mean [1, 4]: 68.3 letters read
- BCVA letters read, median [1, 4]: 71.0 letters read
- BCVA change in letters read, mean [1, 5]: 5.6 letters read
- BCVA change in letters read, median [1, 5]: 5.5 letters read
- BCVA letters read, mean [1, 5]: 68.5 letters read
- BCVA letters read, median [1, 5]: 72.0 letters read
- BCVA change in letters read, mean [1, 6]: 7.1 letters read
- BCVA change in letters read, median [1, 6]: 5.5 letters read
- BCVA letters read, mean [1, 6]: 69.6 letters read
- BCVA letters read, median [1, 6]: 69.5 letters read
- BCVA change in letters read, mean [1, 7]: 7.7 letters read
- BCVA change in letters read, median [1, 7]: 5.5 letters read
- BCVA letters read, mean [1, 7]: 70.6 letters read
- BCVA letters read, median [1, 7]: 72.0 letters read
- BCVA change in letters read, mean [1, 8]: 6.4 letters read
- BCVA change in letters read, median [1, 8]: 8.0 letters read
- BCVA letters read, mean [1, 8]: 68.9 letters read
- BCVA letters read, median [1, 8]: 69.5 letters read
- BCVA change in letters read, mean [1, 9]: 6.3 letters read
- BCVA change in letters read, median [1, 9]: 8.0 letters read
- BCVA letters read, mean [1, 9]: 69.2 letters read
- BCVA letters read, median [1, 9]: 70.5 letters read
- BCVA change in letters read, mean [1, 10]: 2.0 letters read
- BCVA change in letters read, median [1, 10]: 0.0 letters read
- BCVA letters read, mean [1, 10]: 71.7 letters read
- BCVA letters read, median [1, 10]: 75.0 letters read
- BCVA change in letters read, mean [1, 11]: 0.0 letters read
- BCVA change in letters read, median [1, 11]: 0.0 letters read
- BCVA letters read, mean [1, 11]: 70.0 letters read
- BCVA letters read, median [1, 11]: 70.0 letters read
- BCVA change in letters read, mean [1, 12]: 9.8 letters read
- BCVA change in letters read, median [1, 12]: 10.0 letters read
- BCVA letters read, mean [1, 12]: 72.3 letters read
- BCVA letters read, median [1, 12]: 74.5 letters read
- BCVA change in letters read, mean [1, 13]: 11.3 letters read
- BCVA change in letters read, median [1, 13]: 10.0 letters read
- BCVA letters read, mean [1, 13]: 74.2 letters read
- BCVA letters read, median [1, 13]: 75.0 letters read
- BCVA change in letters read, mean [1, 14]: 8.7 letters read
- BCVA change in letters read, median [1, 14]: 10.0 letters read
- BCVA letters read, mean [1, 14]: 78.3 letters read
- BCVA letters read, median [1, 14]: 79.0 letters read
- BCVA change in letters read, mean [1, 15]: 8.0 letters read
- BCVA change in letters read, median [1, 15]: 8.0 letters read
- BCVA letters read, mean [1, 15]: 78.0 letters read
- BCVA letters read, median [1, 15]: 78.0 letters read
- BCVA change in letters read, mean [1, 16]: 10.2 letters read
- BCVA change in letters read, median [1, 16]: 9.5 letters read
- BCVA letters read, mean [1, 16]: 72.7 letters read
- BCVA letters read, median [1, 16]: 74.5 letters read
- BCVA change in letters read, mean [1, 17]: 11.4 letters read
- BCVA change in letters read, median [1, 17]: 10.0 letters read
- BCVA letters read, mean [1, 17]: 74.3 letters read
- BCVA letters read, median [1, 17]: 75.5 letters read
- BCVA change in letters read, mean [1, 18]: 8.0 letters read
- BCVA change in letters read, median [1, 18]: 9.0 letters read
- BCVA letters read, mean [1, 18]: 77.7 letters read
- BCVA letters read, median [1, 18]: 74.0 letters read
- BCVA change in letters read, mean [1, 19]: 9.5 letters read
- BCVA change in letters read, median [1, 19]: 9.5 letters read
- BCVA letters read, mean [1, 19]: 79.5 letters read
- BCVA letters read, median [1, 19]: 79.5 letters read
- BCVA letters read at primary endpoint week, mean [1, 20]: 70.5 letters read
- BCVA letters read at primary endpoint week, median [1, 20]: 71.0 letters read
- BCVA change in letters read, mean [1, 21]: 11.4 letters read
- BCVA change in letters read, median [1, 21]: 11.5 letters read
- BCVA letters read, mean [1, 21]: 73.9 letters read
- BCVA letters read, median [1, 21]: 74.5 letters read
- BCVA change in letters read, mean [1, 22]: 12.8 letters read
- BCVA change in letters read, median [1, 22]: 12.0 letters read
- BCVA letters read, mean [1, 22]: 75.7 letters read
- BCVA letters read, median [1, 22]: 75.5 letters read
- BCVA change in letters read at primary endpoint week, mean [1, 23]: 6.1 letters read
- BCVA change in letters read at primary endpoint week, median [1, 23]: 6.0 letters read
- BCVA change in letters read, mean [1, 24]: 6.3 letters read
- BCVA change in letters read, median [1, 24]: 6.0 letters read
- BCVA letters read, mean [1, 24]: 76.0 letters read
- BCVA letters read, median [1, 24]: 75.0 letters read
- BCVA change in letters read, mean [1, 25]: 6.5 letters read
- BCVA change in letters read, median [1, 25]: 6.5 letters read
- BCVA letters read, mean [1, 25]: 76.5 letters read
- BCVA letters read, median [1, 25]: 76.5 letters read
- BCVA change in letters read, mean [1, 26]: 8.2 letters read
- BCVA change in letters read, median [1, 26]: 9.5 letters read
- BCVA letters read, mean [1, 26]: 70.7 letters read
- BCVA letters read, median [1, 26]: 73.0 letters read
- BCVA change in letters read, mean [1, 27]: 9.5 letters read
- BCVA change in letters read, median [1, 27]: 10.5 letters read
- BCVA letters read, mean [1, 27]: 72.4 letters read
- BCVA letters read, median [1, 27]: 74.0 letters read
- ≥10 Letter Improvement in Visual Acuity, % [1, 28]: (50) %
- ≥15 Letter Improvement in Visual Acuity, % [1, 28]: (0) %
- ≥10 Letter Improvement in Visual Acuity, % [1, 29]: (30) %
- ≥15 Letter Improvement in Visual Acuity, % [1, 29]: (22) %
